Values joined by “and” are separate entries in the source; they are usually repeats but may differ in a detail not shown here. Identical values can stand only once.
Experiment: Stability of POMs in nutrient mixture F-12 Ham by NMR
Assay type: physicochemical
Description: To better mimic biological membranes, which contain negatively charged components and cholesterol, equivalent transport experiments were performed in anionic liposomes^[ [19], [20] ^] with the prototypal POM carriers, [PVW11]^4‒ and [SiMoW11]^4‒ . […] This encouraged us to transfer the experiments to CHO‐K1 (Chinese hamster ovary) cells, after we had confirmed sufficient stability of the most promising POM carriers, [PVW11]^4‒ and [SiMoW11]^4‒ , in the cellular nutrient mixture (F‐12 Ham's medium, Figures S26–S28C, Supporting Information).
Table S9. Results of stability investigation by NMR spectroscopy.
11 product, presumably [SiIVWVI12O40]4–) […]
product, presumably [SiIVWVI12O40]4–)
[AlW ]5‒ freshly prepared
[GeAlW ]5‒ freshly prepared […]
prepared ‒13.7; ‒14.7 intermediate anions
Stability of [PVW11]4‒ in 10 mM Mes buffer pH 5.5: 31P NMR studies were firstly performed on 3 mM solutions of [α-PVVVWVI11O40]4‒ in 10 mM Mes buffer pH 5.5 (Figure S25). The 31P NMR recorded immediately ([…]), one day (Figure S25B), and five days (Figure S25C) after solution preparation display the same signals that can be attributed to the intact [α-PVVVWVI11O40]4‒ (‒14.9 ppm) and the monolacunary [α-PVWVI11O40]7‒ (‒10.8 ppm) species formed upon partial hydrolysis. […]
Figure S24. 31P (A) and 51V (B) NMR spectra of 3 mM solutions of [PVW11]4‒ recorded in D2O. […]

| Substance | % parent anion, F-12 Ham after 1 h at 37 °C (183W NMR) (10 mM POM, F-12 Ham (final pH 5.7), 183W NMR signal intensities) | % parent anion, nutrient mixture F-12 Ham freshly prepared (3 mM POM, F-12 Ham pH 7.4, 31P NMR integration) [%] |
| --- | --- | --- |
| K4[α‐Si^IVMo^VIW^VI 11O40]·24H2O [[SiMoW11]^4‒] | 50% and ~ 50% |  |
| K4[α‐P^VV^VW^VI 11O40]·4H2O [[PVW11]^4‒] |  | 43 |
